Results on eleven compounds are retold here after US10618903B2, “Heteroaryl substituted aminopyridine compounds” (BRISTOL-MYERS SQUIBB COMPANY, priority 2015, dated 2020).

Usually IC50 stands for the concentration at which inhibition is half-maximal. One may read the EC50 as the concentration at which the effect is half-maximal. Low readings indicate a more potent agent, high ones a less potent agent.

One assay has as its target IRAK4 (Homo sapiens (Human), UniProt Q9NWZ3). Put plainly: IRAK4 Inhibition Assay. The format is biochemical. The conditions noted are these: ATP 500 μM; IRAK4 0.6 nM. Put shortly: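 Enzyme 0.6 nM, ATP 500 μM, FL-peptide 1.5 μM, DMSO 1.6%; HEPES pH 7.2/MgCl2/Brij 35/DTT buffer. RT, 60 min, EDTA stop. Mobility-shift product/substrate ratio; % inhib vs no-enzyme and vehicle controls.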

The test system of assay [1] is IL-6 levels in human whole blood stimulated with a TLR2 agonist. Description: IRAK4 Whole Blood Assay (lipoteichoic acid/TLR2-stimulated IL-6). In kind it is cell-based. The conditions noted are these: Homo sapiens, lipoteichoic acid 10 μg/mL, IL-6 readout. The method, then:
Human whole blood containing the anti-coagulant ACD-A was plated in 384-well plate (25 μL/well) and incubated with compounds for 60 minutes at 37° C. in a 5% CO2 incubator. The blood was stimulated with a TLR2 agonist, 10 μg/mL final concentration of lipoteichoic acid (Invivogen, San Diego, Calif.) in 25 μL RPMI (Gibco) for 5 hours in a 5% CO2 incubator. At the end of the incubation, plates were centrifuged at 2300 rpm for 5 minutes. Supernatants were harvested and analyzed for IL-6 levels by Flow Cytometry beads assay (BD Biosciences, San Jose, Calif.).

Chain of IRAK4 (Q9NWZ3 whole entry): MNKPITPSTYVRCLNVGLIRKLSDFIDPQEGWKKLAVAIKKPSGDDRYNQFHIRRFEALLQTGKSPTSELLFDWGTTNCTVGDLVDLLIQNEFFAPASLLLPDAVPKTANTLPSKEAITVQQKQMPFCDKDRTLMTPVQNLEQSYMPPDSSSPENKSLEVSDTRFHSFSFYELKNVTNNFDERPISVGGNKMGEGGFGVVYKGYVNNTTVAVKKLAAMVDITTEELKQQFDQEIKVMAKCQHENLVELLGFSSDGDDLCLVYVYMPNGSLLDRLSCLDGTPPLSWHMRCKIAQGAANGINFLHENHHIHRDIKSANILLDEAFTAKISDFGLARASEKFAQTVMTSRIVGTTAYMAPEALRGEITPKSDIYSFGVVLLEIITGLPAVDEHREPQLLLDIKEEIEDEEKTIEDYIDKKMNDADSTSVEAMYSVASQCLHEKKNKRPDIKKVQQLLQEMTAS

Consider `CC(=O)N[C@H](C)CCNC(=O)c1cnc(-c2cnn3cc(Cl)cnc23)cc1NC(C)C` [Example 167, (R)—N-(3-acetamidobutyl)-6-(6-chloropyrazolo[1,5-a]pyrimidin-3-yl)-4-(isopropylamino) nicotinamide], for which the IC50 at IRAK4 worked out at 0.005 µM. In assay [1], this compound returned an EC50 of 0.55 µM.

For `CC(C)Nc1cc(-c2cnn3cc(Cl)cnc23)ncc1C(=O)NCCCS(C)(=O)=O` [Example 168, 6-(6-chloropyrazolo[1,5-a]pyrimidin-3-yl)-4-(isopropylamino)-N-(3-(methylsulfonyl)propyl)nicotinamide], the IC50 on IRAK4 stood at 0.016 µM. In assay [1], a half-maximal effect (EC50) was put at 0.76 µM.

For `CC(C)Nc1cc(-c2cnn3cc(C#N)cnc23)ncc1C(=O)NC[C@@H](F)C(C)(C)OC(F)F` [Example 170, (R)-6-(6-cyanopyrazolo[1,5-a]pyrimidin-3-yl)-N-(3-(difluoromethoxy)-2-fluoro-3-methylbutyl)-4-(isopropylamino)nicotinamide], the concentration for half-maximal inhibition (IC50) at IRAK4 is 0.005 µM. The concentration for a half-maximal effect (EC50) in assay [1] stood at 0.82 µM.

For the compound `CC(C)Nc1cc(-c2cnc3cc(C#N)cnn23)ncc1C(=O)NCC(F)(F)C(C)(C)O` [Example 173, 6-(7-cyanoimidazo[1,2-b]pyridazin-3-yl)-N-(2,2-difluoro-3-hydroxy-3-methylbutyl)-4-(isopropylamino)nicotinamide], at IRAK4, the IC50 amounted to 0.006 µM. For the same compound, the response in assay [1] was half-maximal at 0.83 µM (EC50).

Take `COC(C)(C)[C@H]1CC[C@H](NC(=O)c2cnc(-c3cnc4cc(C#N)cnn34)cc2NC(C)C)CC1` [Example 174, 6-(7-cyanoimidazo[1,2-b]pyridazin-3-yl)-4-(isopropylamino)-N-((1r,4r)-4-(2-methoxypropan-2-yl)cyclohexyl)nicotinamide]: the IC50 at IRAK4 was 0.004 µM. This compound returned an EC50 in assay [1] of 0.71 µM.

As to `CC(C)(O)[C@H](F)CNC(=O)c1cnc(-c2cnc3cc(Cl)cnn23)cc1N[C@H]1CC[C@H](C(C)(C)F)CC1` [Example 175, 6-(7-chloroimidazo[1,2-b]pyridazin-3-yl)-N—((R)-2-fluoro-3-hydroxy-3-methylbutyl)-4-(((1r,4R)-4-(2-fluoropropan-2-yl)cyclohexyl)amino)nicotinamide], the IC50 on IRAK4 was determined as 0.003 µM. In assay [1], this compound came in with an EC50 of 0.48 µM.

Regarding `CC(C)(O)[C@H](F)CNC(=O)c1cnc(-c2cnc3cc(C#N)cnn23)cc1NC1CC1` [Example 182, (R)-6-(7-cyanoimidazo[1,2-b]pyridazin-3-yl)-4-(cyclopropylamino)-N-(2-fluoro-3-hydroxy-3-methylbutyl)nicotinamide], the IC50 at IRAK4 is 0.002 µM. Besides, the EC50 in assay [1] turned out to be 0.62 µM.

Consider `CC(C)Nc1cc(-c2ccc3cc(C#N)cnn23)ncc1C(=O)NC[C@@H](F)C(C)(C)O` [Example 193, (R)-6-(3-cyanopyrrolo[1,2-b]pyridazin-7-yl)-N-(2-fluoro-3-hydroxy-3-methylbutyl)-4-(isopropylamino)nicotinamide], for which, at IRAK4, the IC50 is 0.004 µM. The EC50 in assay [1] was 0.26 µM.

Consider `CO[C@H]1CC[C@H](Nc2cc(-c3cnc4cc(C#N)cnn34)ncc2C(=O)NC[C@@H](F)C(C)(C)O)CC1` [Example 196, 6-(7-cyanoimidazo[1,2-b]pyridazin-3-yl)-N—((R)-2-fluoro-3-hydroxy-3-methylbutyl)-4-(((1r,4R)-4-methoxycyclohexyl)amino) nicotinamide], for which, on IRAK4, the IC50 is 0.006 µM. The compound also had an EC50 in assay [1] of 0.64 µM.

Regarding `C[C@@H](CF)Nc1cc(-c2cnc3cc(C#N)cnn23)ncc1C(=O)NC[C@@H](F)C(C)(C)O` [Example 200, 6-(7-cyanoimidazo[1,2-b]pyridazin-3-yl)-N—((R)-2-fluoro-3-hydroxy-3-methylbutyl)-4-(((S)-1-fluoropropan-2-yl)amino)nicotinamide], the IC50 at IRAK4 worked out at 0.002 µM. A half-maximal effect in assay [1] (EC50) was put at 0.43 µM.

Consider `CC[C@@H](C)Nc1cc(-c2cnc3cc(Cl)cnn23)ncc1C(=O)NC[C@@H](F)C(C)(C)O` [Example 202, 4-(((R)-sec-butyl)amino)-6-(7-chloroimidazo[1,2-b]pyridazin-3-yl)-N—((R)-2-fluoro-3-hydroxy-3-methylbutyl)nicotinamide], for which the IC50 on IRAK4 stood at 0.002 µM. The same compound showed an EC50 in assay [1] of 0.75 µM.
